Results as given in US20240368163A1, “COMPOUNDS AND METHODS FOR MODULATING SPLICING” (REMIX THERAPEUTICS INC., priority 2021, published 2024).
pIC50: −log10 of the molar value. Like-named read-outs stand apart in the source and are kept apart here.

How the values were obtained:
Assay type in all cases: cell-based, human
HTT [1] = assay: Splicing RT-qPCR assay, HTT mRNA canonical junction (CJ) and alternative junction (AJ); settings: RT-qPCR panel, canonical junction mRNA, compound concentration having 50% response in CJ decrease, read-out: HTT IC50 (decrease in CJ mRNA levels)
Outline: (§1)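 Splice switching is measured in A673 or K562 cells after 24 h compound exposure (maximum 10 uM, 3-fold steps). Canonical and alternative junction mRNA levels are quantified by RT-qPCR relative to housekeeper and DMSO.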

MYB [2] = assay: Splicing RT-qPCR assay, MYB mRNA canonical junction (CJ) and alternative junction (AJ); settings: RT-qPCR panel, canonical junction mRNA, compound concentration having 50% response in CJ decrease, read-out: MYB IC50 (decrease in CJ mRNA levels)
Outline: as §1

SMN2 = assay: Splicing RT-qPCR panel, SMN2 canonical junction (CJ) mRNA; settings: RT-qPCR panel, canonical junction mRNA, compound concentration having 50% response in CJ decrease, read-out: SMN2 IC50 (decrease in CJ mRNA levels)
Outline: as §1

Target C [3] = assay: Splicing RT-qPCR panel, Target C canonical junction (CJ) mRNA; settings: RT-qPCR panel, canonical junction mRNA, compound concentration having 50% response in CJ decrease, read-out: Target C IC50 (decrease in CJ mRNA levels)
Outline: as §1

MYB [4] = assay: HiBiT protein abundance assay, MYB; settings: Table 13A, modified K562 cells
Outline: (§2)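 HiBiT-tagged endogenous targets in K562 cells treated 24 h at 37° C. with 10-point 3-fold dilutions (top 10 μM, DMSO ≤0.25%). Luminescence read after lytic LgBiT detection; response normalised to unmodified-cell and DMSO controls, IC50 interpolated at 50% from four-parameter logistic fit.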

HTT [5] = assay: HiBiT protein abundance assay, HTT; settings: Table 13A, modified K562 cells
Outline: as §2

Target C [6] = assay: HiBiT protein abundance assay, Target C; settings: Table 13A, modified K562 cells
Outline: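 HiBiT knock-in K562-derived cells seeded at 10000/well and treated with 10-point 3-fold dilutions (top final 10 μM, ≤0.25% DMSO) for 24 h at 37 °C. Lytic HiBiT luminescence normalised to unmodified-cell and DMSO controls; IC50 from 4-parameter fit at 50% abundance.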

SMILES	pIC50 (HTT [1]; Homo sapiens)	pIC50 (MYB [2]; Homo sapiens)	pIC50 (SMN2; Homo sapiens)	pIC50 (Target C [3]; Homo sapiens)	pIC50 (MYB [4]; Homo sapiens, K562, 24 h)	pIC50 (HTT [5]; Homo sapiens, K562, 24 h)	pIC50 (Target C [6]; Homo sapiens, K562, 24 h)	pIC50 (HTT [1])	pIC50 (MYB [2])	pIC50 (SMN2)	pIC50 (Target C [3])	pIC50 (MYB [4]; 24 hours)	pIC50 (HTT [5]; 24 hours)	pIC50 (Target C [6]; 24 hours)
CNC1CCN(c2ncc(-c3ccc(-n4cccn4)c4[nH]ncc34)nn2)C1 (stereo not shown) [Compound 485, N-methyl-1-[6-(7-pyrazol-1-yl-1H-indazol-4-yl)-1,2,4-triazin-3-yl]pyrrolidin-3-amine]	5.00 to 6.00	5.00 to 6.00	5.00 to 6.00	< 5.00	5.00 to 6.00	5.00 to 6.00	5.00 to 6.00	–	–	–	–	–	–	–
c1cnn(-c2ccc(-c3cnc(N4CCNC(C5CC5)C4)nn3)c3cn[nH]c23)c1 (stereo not shown) [Compound 511]	> 7.00	5.00 to 6.00	6.00 to 7.00	6.00 to 7.00	5.00 to 6.00	6.00 to 7.00	6.00 to 7.00	–	–	–	–	–	–	–
c1cnn(-c2ccc(-c3cnc(N4CCC(NC5CC5)C4)nn3)c3cn[nH]c23)c1 (stereo not shown) [Compound 548]	–	–	–	–	–	–	–	5.00 to 6.00	< 5.00	5.00 to 6.00	< 5.00	< 5.00	5.00 to 6.00	5.00 to 6.00
CNC1CCN(c2ncc(-c3ccc(-n4cccn4)c4[nH]ncc34)nn2)C1 (stereo not shown) [Compound 549]	–	–	–	–	–	–	–	5.00 to 6.00	5.00 to 6.00	5.00 to 6.00	< 5.00	5.00 to 6.00	5.00 to 6.00	5.00 to 6.00
c1nc2c(-c3cn[nH]c3)ccc(-c3cnc(N4CCN[C@@H](C5CC5)C4)nn3)c2s1 [Compound 552]	6.00 to 7.00	5.00 to 6.00	6.00 to 7.00	5.00 to 6.00	5.00 to 6.00	6.00 to 7.00	6.00 to 7.00	–	–	–	–	–	–	–
CC1(C)CC(Oc2ccc(-c3ccc(-n4cccn4)c4[nH]ncc34)nn2)CC(C)(C)N1 [Compound 554]	6.00 to 7.00	6.00 to 7.00	6.00 to 7.00	5.00 to 6.00	6.00 to 7.00	6.00 to 7.00	6.00 to 7.00	–	–	–	–	–	–	–
CC1(C)CC(Nc2ccc(-c3ccc(-n4cccn4)c4[nH]ncc34)nn2)CC(C)(C)N1 [Compound 558]	6.00 to 7.00	6.00 to 7.00	> 7.00	6.00 to 7.00	6.00 to 7.00	> 7.00	> 7.00	–	–	–	–	–	–	–
CN(c1ccc(-c2ccc(-n3cccn3)c3[nH]ncc23)nn1)C1CC(C)(C)NC(C)(C)C1 [Compound 559]	6.00 to 7.00	5.00 to 6.00	6.00 to 7.00	5.00 to 6.00	6.00 to 7.00	6.00 to 7.00	6.00 to 7.00	–	–	–	–	–	–	–
c1cnn(-c2ccc(-c3ccc(N4CCNC(C5CC5)C4)nn3)c3cn[nH]c23)c1 (stereo not shown) [Compound 560]	6.00 to 7.00	5.00 to 6.00	6.00 to 7.00	5.00 to 6.00	5.00 to 6.00	6.00 to 7.00	6.00 to 7.00	–	–	–	–	–	–	–
C[C@@H]1CN(c2ncc(-c3ccc(-c4cn[nH]c4)c4ncsc34)nn2)C[C@H](C)N1 [Compound 562]	< 5.00	< 5.00	5.00 to 6.00	< 5.00	5.00 to 6.00	5.00 to 6.00	5.00 to 6.00	–	–	–	–	–	–	–
CC1(C)CN(c2ncc(-c3ccc(-c4cn[nH]c4)c4ncsc34)nn2)CC(C)(C)N1 [Compound 563]	5.00 to 6.00	5.00 to 6.00	5.00 to 6.00	< 5.00	5.00 to 6.00	5.00 to 6.00	5.00 to 6.00	–	–	–	–	–	–	–
CN1CCN(c2ncc(-c3ccc(-c4cn[nH]c4)c4ncsc34)nn2)CC1C1CC1 (stereo not shown) [Compound 564]	6.00 to 7.00	5.00 to 6.00	6.00 to 7.00	5.00 to 6.00	5.00 to 6.00	6.00 to 7.00	6.00 to 7.00	–	–	–	–	–	–	–
c1nc2c(-c3cn[nH]c3)ccc(-c3cnc(N4CCN5CCCC5C4)nn3)c2s1 (stereo not shown) [Compound 565]	5.00 to 6.00	5.00 to 6.00	5.00 to 6.00	< 5.00	5.00 to 6.00	5.00 to 6.00	5.00 to 6.00	–	–	–	–	–	–	–
c1nc2c(-c3cn[nH]c3)ccc(-c3cnc(N4CCN5CCCCC5C4)nn3)c2s1 (stereo not shown) [Compound 566]	6.00 to 7.00	5.00 to 6.00	5.00 to 6.00	5.00 to 6.00	5.00 to 6.00	6.00 to 7.00	5.00 to 6.00	–	–	–	–	–	–	–
CN(c1ncc(-c2ccc(-c3cn[nH]c3)c3ncsc23)nn1)C1CC(C)(C)NC(C)(C)C1 [Compound 567]	6.00 to 7.00	5.00 to 6.00	6.00 to 7.00	6.00 to 7.00	5.00 to 6.00	6.00 to 7.00	6.00 to 7.00	–	–	–	–	–	–	–
C[C@H]1CN(c2ncc(-c3ccc(-c4cn[nH]c4)c4ncsc34)nn2)C[C@@H](C2CC2)N1 [Compound 568]	6.00 to 7.00	< 5.00	5.00 to 6.00	5.00 to 6.00	5.00 to 6.00	6.00 to 7.00	5.00 to 6.00	–	–	–	–	–	–	–
CC(C)(C)NC1CCN(c2ncc(-c3ccc(-c4cn[nH]c4)c4ncsc34)nn2)C1 (stereo not shown) [Compound 569]	6.00 to 7.00	5.00 to 6.00	5.00 to 6.00	5.00 to 6.00	5.00 to 6.00	6.00 to 7.00	5.00 to 6.00	–	–	–	–	–	–	–
CC(C)(C)C1CN(c2ncc(-c3ccc(-c4cn[nH]c4)c4ncsc34)nn2)CCN1 (stereo not shown) [Compound 570]	6.00 to 7.00	6.00 to 7.00	6.00 to 7.00	6.00 to 7.00	5.00 to 6.00	6.00 to 7.00	6.00 to 7.00	–	–	–	–	–	–	–
C[C@@H]1CN(c2ncc(-c3ccc(-n4cccn4)c4[nH]ncc34)nn2)C[C@H](C)N1 [Compound 571]	5.00 to 6.00	5.00 to 6.00	5.00 to 6.00	5.00 to 6.00	5.00 to 6.00	6.00 to 7.00	5.00 to 6.00	–	–	–	–	–	–	–
